In PubChem BioAssay AID256 (DTP/NCI, 2004):
Several values for one entry are separate records, joined by “and”; a condition that tells them apart may be missing. Identical values can stand only once. Inconclusive results and toxic doses are left out. Rule for the calls: active = survival T/C of 150% or more; inactive = T/C below 125% in these data.

Test system: CD2F1 mice, L1210 leukemia ip, survival T/C
Assay: NCI In Vivo Anticancer Drug Screen. Data for tumor model L1210 Leukemia (intraperitoneal) in CD2F1 (CDF1) mice
Conditions: higher = longer survival
Method in brief: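 Vehicle-treated tumor-bearing mice served as controls (C) for compound-treated mice (T). Reported figure is T divided by C.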

[1] = endpoint: mean survival time, dose: 6.25 mg/kg/injection, schedule: Q04DX003 (ip), vehicle: distilled water + Tween-80
[2] = endpoint: mean survival time, dose: 12.5 mg/kg/injection, schedule: Q04DX003 (ip), vehicle: distilled water + Tween-80
[3] = endpoint: mean survival time, dose: 25.0 mg/kg/injection, schedule: Q04DX003 (ip), vehicle: distilled water + Tween-80
[4] = endpoint: mean survival time, dose: 50.0 mg/kg/injection, schedule: Q04DX003 (ip), vehicle: distilled water + Tween-80
[5] = endpoint: mean survival time, dose: 100.0 mg/kg/injection, schedule: Q01DX009 (ip), vehicle: saline
[6] = endpoint: mean survival time, dose: 100.0 mg/kg/injection, schedule: Q04DX003 (ip), vehicle: saline with Tween-80
[7] = endpoint: mean survival time, dose: 200.0 mg/kg/injection, schedule: Q04DX003 (ip), vehicle: saline with Tween-80
[8] = endpoint: mean survival time, dose: 400.0 mg/kg/injection, schedule: Q04DX003 (ip), vehicle: saline with Tween-80
[9] = endpoint: mean survival time, dose: 100.0 mg/kg/injection, schedule: Q01DX009 (ip), vehicle: saline with Tween-80
[10] = endpoint: mean survival time, dose: 200.0 mg/kg/injection, schedule: Q01DX009 (ip), vehicle: saline with Tween-80
[11] = endpoint: mean survival time, dose: 100.0 mg/kg/injection, schedule: Q04DX002 (ip), vehicle: saline with Tween-80
[12] = endpoint: mean survival time, dose: 200.0 mg/kg/injection, schedule: Q04DX002 (ip), vehicle: saline with Tween-80
[13] = endpoint: mean survival time, dose: 400.0 mg/kg/injection, schedule: Q04DX002 (ip), vehicle: saline with Tween-80
[14] = endpoint: mean survival time, dose: 400.0 mg/kg/injection, schedule: Q01DX009 (ip), vehicle: saline with Tween-80

Measured: T/C

CC(C)=CCC(OC(=O)C=C(C)C)c1cc(O)c2c(O)ccc(O)c2c1O.[Pt] (stereo not given)
inactive: endpoint: mean survival time, dose: 1.56 mg/kg/injection, schedule: Q04DX003 (ip), vehicle: distilled water + Tween-80 104 % of control | endpoint: mean survival time, dose: 3.12 mg/kg/injection, schedule: Q04DX003 (ip), vehicle: distilled water + Tween-80 104 % of control | [1] 101 % of control | [2] 101 % of control | [3] 95 % of control | [4] 89 % of control | endpoint: mean survival time, dose: 100.0 mg/kg/injection, schedule: Q04DX003 (ip), vehicle: distilled water + Tween-80 92 % of control

CC1CC(=O)OC2CC(C)(C)CC(=O)C12 (stereo not given)
inactive: [5] 104 % of control | endpoint: mean survival time, dose: 100.0 mg/kg/injection, schedule: Q04DX003 (ip), vehicle: saline sonified 98 % of control | endpoint: mean survival time, dose: 200.0 mg/kg/injection, schedule: Q01DX009 (ip), vehicle: saline 106 % of control | endpoint: mean survival time, dose: 200.0 mg/kg/injection, schedule: Q04DX003 (ip), vehicle: saline sonified 95 % of control | endpoint: mean survival time, dose: 400.0 mg/kg/injection, schedule: Q01DX009 (ip), vehicle: saline 104 % of control | endpoint: mean survival time, dose: 400.0 mg/kg/injection, schedule: Q04DX003 (ip), vehicle: saline sonified 95 % of control

O=C1C(Cl)(Cl)C(=O)C(Cl)(Cl)C(=O)C1(Cl)Cl
inactive: endpoint: mean survival time, dose: 25.0 mg/kg/injection, schedule: Q04DX002 (ip), vehicle: saline with Tween-80 97 % of control | endpoint: mean survival time, dose: 50.0 mg/kg/injection, schedule: Q04DX002 (ip), vehicle: saline with Tween-80 94 % of control

OCCN=Cc1ccccc1
inactive: endpoint: mean survival time, dose: 25.0 mg/kg/injection, schedule: Q01DX009 (ip), vehicle: saline 95 % of control | endpoint: mean survival time, dose: 50.0 mg/kg/injection, schedule: Q01DX009 (ip), vehicle: saline 92 % of control | [5] 97 % of control | [6] 106 % of control

CC(C)(C)C(CCC(=O)O)CC(=O)O (stereo not given)
inactive: [6] 97 % of control | [7] 96 % of control | [8] 100 % of control

N=C(N)SCc1cccc2c(=O)cc(-c3ccccc3)oc12
inactive: endpoint: mean survival time, dose: 25.0 mg/kg/injection, schedule: Q01DX009 (ip), vehicle: saline with Tween-80 95 % of control | endpoint: mean survival time, dose: 50.0 mg/kg/injection, schedule: Q01DX009 (ip), vehicle: saline with Tween-80 96 % of control | [9] 101 % of control | [10] 104 % of control | endpoint: median survival time, dose: 25.0 mg/kg/injection, schedule: Q01DX009 (ip), vehicle: saline 113 % of control | endpoint: median survival time, dose: 50.0 mg/kg/injection, schedule: Q01DX009 (ip), vehicle: saline 113 % of control | endpoint: median survival time, dose: 100.0 mg/kg/injection, schedule: Q01DX009 (ip), vehicle: saline 114 % of control | endpoint: median survival time, dose: 200.0 mg/kg/injection, schedule: Q01DX009 (ip), vehicle: saline 113 % of control | endpoint: median survival time, dose: 400.0 mg/kg/injection, schedule: Q01DX009 (ip), vehicle: saline 97 % of control

CCCc1ccc(Nc2c3ccccc3nc3ccccc23)cc1
inactive: [11] 107 % of control | [12] 114 % of control | [13] 105 % of control

CCCCCOC(=N)CC(=O)C(C)(C)C
inactive: endpoint: mean survival time, dose: 100.0 mg/kg/injection, schedule: Q01DX001 (ip), vehicle: saline 94 % of control | endpoint: mean survival time, dose: 200.0 mg/kg/injection, schedule: Q01DX001 (ip), vehicle: saline 94 % of control | endpoint: mean survival time, dose: 400.0 mg/kg/injection, schedule: Q01DX001 (ip), vehicle: saline 97 % of control

CC1CN=C(c2ccc(Br)cc2)O1 (stereo not given)
inactive: endpoint: mean survival time, dose: 100.0 mg/kg/injection, schedule: Q04DX003 (ip), vehicle: saline 103 % of control | endpoint: mean survival time, dose: 200.0 mg/kg/injection, schedule: Q04DX003 (ip), vehicle: saline 96 % of control | endpoint: mean survival time, dose: 400.0 mg/kg/injection, schedule: Q04DX003 (ip), vehicle: saline 103 % of control

[Cl][Pt+2][Cl].[NH-]c1cc(F)ccc1F.[NH-]c1cc(F)ccc1F
inactive: endpoint: mean survival time, dose: 3.13 mg/kg/injection, schedule: Q04DX003 (ip), vehicle: distilled water + Tween-80 112 % of control | [1] 110 % of control | [2] 112 % of control | [3] 120 % of control | [4] 110 % of control

CCC1C(=O)NC(=O)NC1=O
inactive: [9] 96 % of control | [6] 98 % of control | [10] 94 % of control | [7] 94 % of control | [14] 93 % of control | [8] 96 % of control

O=C(CNC1=NCCN1)Nc1ccc(NC(=O)c2ccc(C(=O)Nc3ccc(NC(=O)CNC4=NCCN4)cc3)cc2)cc1
inactive: endpoint: mean survival time, dose: 12.0 mg/kg/injection, schedule: Q01DX Z (ip), vehicle: carboxymethylcellulose (CMC) 102 % of control | endpoint: mean survival time, dose: 14.0 mg/kg/injection, schedule: Q01DX Z (ip), vehicle: carboxymethylcellulose (CMC) 106 % of control | endpoint: mean survival time, dose: 16.0 mg/kg/injection, schedule: Q01DX Z (ip), vehicle: carboxymethylcellulose (CMC) 102 % of control | endpoint: mean survival time, dose: 18.0 mg/kg/injection, schedule: Q01DX Z (ip), vehicle: carboxymethylcellulose (CMC) 106 % of control

O=C(COc1ccc(F)cc1)OCCO
inactive: [11] 105 % of control | [12] 101 % of control | [13] 105 % of control

O=C1c2ccccc2C(Cl)(c2ccc(Cl)cc2)c2ccc(Cl)cc21 (stereo not given)
inactive: endpoint: median survival time, dose: 25.0 mg/kg/injection, schedule: Q01DX009 (ip), vehicle: saline with Tween-80 111 % of control | endpoint: median survival time, dose: 50.0 mg/kg/injection, schedule: Q01DX009 (ip), vehicle: saline with Tween-80 112 % of control | endpoint: median survival time, dose: 100.0 mg/kg/injection, schedule: Q01DX009 (ip), vehicle: saline with Tween-80 111 % of control

Nc1cc(OCc2ccccc2)c(N)c(N)n1
inactive: endpoint: mean survival time, dose: 1.56 mg/kg/injection, schedule: Q01DX005 (ip), vehicle: water 98 % of control | endpoint: mean survival time, dose: 3.13 mg/kg/injection, schedule: Q01DX005 (ip), vehicle: water 97 % of control | endpoint: mean survival time, dose: 6.25 mg/kg/injection, schedule: Q01DX005 (ip), vehicle: water 98 % of control | endpoint: mean survival time, dose: 12.5 mg/kg/injection, schedule: Q01DX005 (ip), vehicle: water 98 % of control | endpoint: mean survival time, dose: 25.0 mg/kg/injection, schedule: Q01DX005 (ip), vehicle: water 97 % of control

C[S+](C)CCC(N)C(=O)O (stereo not given) (tested in a mixture with another compound)
inactive: endpoint: median survival time, dose: 3.13 mg/kg/injection, schedule: Q04DX002 (ip), vehicle: saline 111 % of control | endpoint: median survival time, dose: 6.25 mg/kg/injection, schedule: Q04DX002 (ip), vehicle: saline 111 % of control | endpoint: median survival time, dose: 12.5 mg/kg/injection, schedule: Q04DX002 (ip), vehicle: saline 111 % of control | endpoint: median survival time, dose: 25.0 mg/kg/injection, schedule: Q04DX002 (ip), vehicle: saline 111 % of control and 108 % of control | endpoint: median survival time, dose: 50.0 mg/kg/injection, schedule: Q04DX002 (ip), vehicle: saline 111 % of control and 94 % of control | endpoint: median survival time, dose: 100.0 mg/kg/injection, schedule: Q04DX002 (ip), vehicle: saline 117 % of control and 100 % of control | endpoint: median survival time, dose: 400.0 mg/kg/injection, schedule: Q04DX002 (ip), vehicle: saline 100 % of control

Nc1ncccc1[N+](=O)[O-]
inactive: endpoint: mean survival time, dose: 100.0 mg/kg/injection, schedule: Q01DX001 (ip), vehicle: saline with Tween-80 97 % of control | [6] 105 % of control | endpoint: mean survival time, dose: 200.0 mg/kg/injection, schedule: Q01DX001 (ip), vehicle: saline with Tween-80 96 % of control | [7] 102 % of control | endpoint: mean survival time, dose: 400.0 mg/kg/injection, schedule: Q01DX001 (ip), vehicle: saline with Tween-80 98 % of control | [8] 105 % of control

CC(C(=O)NN)C(O)C(C)(C)O (stereo not given)
inactive: [6] 96 % of control | [7] 96 % of control | [8] 103 % of control

CC(C)(C)C1C=Nn2c(=O)n(-c3ccccc3)c(=O)n21 (stereo not given)
inactive: endpoint: mean survival time, dose: 12.5 mg/kg/injection, schedule: Q01DX009 (ip), vehicle: other 100 % of control | endpoint: mean survival time, dose: 25.0 mg/kg/injection, schedule: Q01DX009 (ip), vehicle: other 94 % of control | endpoint: mean survival time, dose: 50.0 mg/kg/injection, schedule: Q01DX009 (ip), vehicle: other 101 % of control | endpoint: mean survival time, dose: 100.0 mg/kg/injection, schedule: Q01DX009 (ip), vehicle: other 100 % of control | endpoint: mean survival time, dose: 200.0 mg/kg/injection, schedule: Q01DX009 (ip), vehicle: other 99 % of control

CN(C)CCOc1ccccn1
inactive: [9] 93 % of control | [6] 92 % of control | [10] 95 % of control | [7] 87 % of control | [14] 87 % of control | [8] 87 % of control

CN/N=C1\CCC2C3CCc4cc(O)ccc4C3CCC12C (stereo not given)
inactive: endpoint: mean survival time, dose: 25.0 mg/kg/injection, schedule: Q01DX009 (ip), vehicle: Klucel (hydroxypropylcellulose) (HPC) 102 % of control | endpoint: mean survival time, dose: 50.0 mg/kg/injection, schedule: Q01DX009 (ip), vehicle: Klucel (hydroxypropylcellulose) (HPC) 103 % of control
